Common to all, as to type: binding
What all share (conditions): Compound Concentration 10 µM

Assay [1] addresses T1, panel of 442 kinases (Homo sapiens, UniProt Q13153).
T1 construct: purchased KINOMEscan
The source says:
(§1) We assessed the selectivity of members of this scaffold using the KINOMEscan methodology across a near comprehensive panel of 442 kinases [[18,27]].

Assay [2] concerns the target T2, panel of 442 kinases (Homo sapiens, UniProt P14616).
T2 construct: purchased KINOMEscan
From the text: as §1

Assay [3] has as its target T3, panel of 442 kinases (Homo sapiens, UniProt Q13233).
T3 construct: purchased KINOMEscan
From the text: as §1

SMILES strings stand for the structures.

T3 sequence (Q13233 whole entry): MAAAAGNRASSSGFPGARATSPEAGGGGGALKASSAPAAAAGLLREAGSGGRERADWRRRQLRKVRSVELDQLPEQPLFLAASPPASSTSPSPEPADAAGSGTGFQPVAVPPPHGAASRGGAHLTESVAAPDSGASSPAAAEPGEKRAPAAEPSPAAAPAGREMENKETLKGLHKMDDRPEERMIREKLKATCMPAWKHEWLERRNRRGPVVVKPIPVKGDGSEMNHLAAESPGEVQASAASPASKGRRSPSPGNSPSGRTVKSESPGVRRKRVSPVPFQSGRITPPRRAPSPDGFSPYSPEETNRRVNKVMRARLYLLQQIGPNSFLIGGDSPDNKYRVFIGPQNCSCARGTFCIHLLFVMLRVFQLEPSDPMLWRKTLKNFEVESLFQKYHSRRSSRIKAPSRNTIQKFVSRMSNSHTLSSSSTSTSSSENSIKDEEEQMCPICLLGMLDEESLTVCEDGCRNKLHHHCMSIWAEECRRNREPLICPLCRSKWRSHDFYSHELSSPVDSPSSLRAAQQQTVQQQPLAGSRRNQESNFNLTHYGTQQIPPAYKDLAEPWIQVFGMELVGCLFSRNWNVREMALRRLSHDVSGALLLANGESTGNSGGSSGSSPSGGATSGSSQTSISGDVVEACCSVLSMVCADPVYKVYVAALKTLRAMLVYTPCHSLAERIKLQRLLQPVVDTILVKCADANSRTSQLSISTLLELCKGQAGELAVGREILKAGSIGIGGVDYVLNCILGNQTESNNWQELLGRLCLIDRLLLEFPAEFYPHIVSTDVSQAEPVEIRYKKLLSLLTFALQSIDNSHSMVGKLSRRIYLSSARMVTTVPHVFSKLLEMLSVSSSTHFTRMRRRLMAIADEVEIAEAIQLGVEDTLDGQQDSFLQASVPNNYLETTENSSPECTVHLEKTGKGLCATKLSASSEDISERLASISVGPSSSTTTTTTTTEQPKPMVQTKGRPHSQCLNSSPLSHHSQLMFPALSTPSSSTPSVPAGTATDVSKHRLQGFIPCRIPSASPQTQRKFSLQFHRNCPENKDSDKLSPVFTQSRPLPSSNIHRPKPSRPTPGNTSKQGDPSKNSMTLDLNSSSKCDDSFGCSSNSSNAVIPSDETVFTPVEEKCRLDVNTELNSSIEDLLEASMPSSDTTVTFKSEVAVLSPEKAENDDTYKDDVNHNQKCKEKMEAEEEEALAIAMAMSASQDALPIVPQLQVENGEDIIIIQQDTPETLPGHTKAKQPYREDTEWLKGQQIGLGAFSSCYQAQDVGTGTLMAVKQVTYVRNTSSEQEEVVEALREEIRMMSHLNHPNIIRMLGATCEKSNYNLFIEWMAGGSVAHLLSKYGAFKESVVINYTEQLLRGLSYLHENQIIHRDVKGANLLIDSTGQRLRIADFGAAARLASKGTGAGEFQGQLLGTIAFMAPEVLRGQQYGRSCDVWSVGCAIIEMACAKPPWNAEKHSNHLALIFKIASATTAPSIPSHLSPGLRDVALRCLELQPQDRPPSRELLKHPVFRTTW
T2 sequence (P14616 27-1297): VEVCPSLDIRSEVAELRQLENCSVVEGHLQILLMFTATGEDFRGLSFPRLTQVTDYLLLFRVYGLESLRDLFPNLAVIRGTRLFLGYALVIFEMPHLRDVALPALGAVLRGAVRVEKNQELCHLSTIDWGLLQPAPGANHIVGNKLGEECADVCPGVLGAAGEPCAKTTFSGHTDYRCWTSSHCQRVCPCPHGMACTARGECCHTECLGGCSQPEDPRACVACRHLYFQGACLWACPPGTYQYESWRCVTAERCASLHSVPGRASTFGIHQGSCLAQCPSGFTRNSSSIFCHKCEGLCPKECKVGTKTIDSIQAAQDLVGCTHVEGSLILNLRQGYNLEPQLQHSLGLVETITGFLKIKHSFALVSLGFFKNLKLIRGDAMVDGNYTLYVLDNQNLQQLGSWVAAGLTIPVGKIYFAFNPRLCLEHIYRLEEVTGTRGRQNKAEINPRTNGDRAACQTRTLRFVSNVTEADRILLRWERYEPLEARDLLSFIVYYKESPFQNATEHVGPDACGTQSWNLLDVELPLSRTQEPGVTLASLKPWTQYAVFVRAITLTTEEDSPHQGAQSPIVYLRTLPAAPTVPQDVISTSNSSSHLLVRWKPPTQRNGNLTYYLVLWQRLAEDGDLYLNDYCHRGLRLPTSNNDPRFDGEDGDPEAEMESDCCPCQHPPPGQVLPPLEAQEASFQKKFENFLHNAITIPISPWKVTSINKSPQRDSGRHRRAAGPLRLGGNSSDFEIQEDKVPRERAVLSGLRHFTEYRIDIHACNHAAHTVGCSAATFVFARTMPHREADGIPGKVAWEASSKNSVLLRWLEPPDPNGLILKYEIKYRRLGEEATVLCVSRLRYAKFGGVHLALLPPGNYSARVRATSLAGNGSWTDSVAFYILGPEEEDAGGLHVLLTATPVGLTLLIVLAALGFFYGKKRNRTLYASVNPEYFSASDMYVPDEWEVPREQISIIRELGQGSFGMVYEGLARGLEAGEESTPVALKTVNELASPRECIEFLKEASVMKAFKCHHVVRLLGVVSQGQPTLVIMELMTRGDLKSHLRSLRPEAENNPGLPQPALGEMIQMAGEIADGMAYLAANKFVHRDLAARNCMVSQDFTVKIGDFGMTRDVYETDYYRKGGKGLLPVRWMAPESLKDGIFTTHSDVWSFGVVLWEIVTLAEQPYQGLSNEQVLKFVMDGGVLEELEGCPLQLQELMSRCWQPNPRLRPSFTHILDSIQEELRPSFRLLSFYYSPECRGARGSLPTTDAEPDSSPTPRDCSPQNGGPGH
T1 sequence (Q13153 whole entry): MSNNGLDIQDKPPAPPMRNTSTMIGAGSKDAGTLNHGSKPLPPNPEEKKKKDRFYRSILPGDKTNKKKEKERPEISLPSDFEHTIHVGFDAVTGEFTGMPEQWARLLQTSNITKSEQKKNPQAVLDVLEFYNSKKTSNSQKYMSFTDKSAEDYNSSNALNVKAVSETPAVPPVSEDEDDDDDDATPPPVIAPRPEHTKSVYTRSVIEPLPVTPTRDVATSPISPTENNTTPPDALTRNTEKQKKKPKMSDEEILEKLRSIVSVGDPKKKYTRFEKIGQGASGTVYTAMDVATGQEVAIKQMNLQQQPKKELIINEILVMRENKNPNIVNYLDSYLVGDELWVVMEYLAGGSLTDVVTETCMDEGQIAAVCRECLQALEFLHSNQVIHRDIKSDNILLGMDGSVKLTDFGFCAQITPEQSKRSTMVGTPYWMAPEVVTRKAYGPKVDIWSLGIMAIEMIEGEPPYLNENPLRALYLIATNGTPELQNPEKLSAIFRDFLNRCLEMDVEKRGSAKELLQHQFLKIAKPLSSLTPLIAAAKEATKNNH

Take `COc1cc(C(=O)N2CCC(N3CCN(C)CC3)CC2)ccc1Nc1ncc2c(n1)N(C1CCCC1)c1ccccc1C(=O)N2C` [Compound 25, 11-cyclopentyl-2-((2-methoxy-4-(4-(4-methylpiperazin-1-yl)piperidine-1-carbonyl)phenyl)amino)-5-methyl-5H-benzo[e]pyrimido[5,4-b][1,4]diazepin-6(11H)-one]: the “KINOMEscan: PAK1” value on panel of 442 kinases [1] worked out at 82. For the same molecule, the “KINOMEscan: INSRR” value on panel of 442 kinases [2] is reported as 94. Besides, the “KINOMEscan: MAP3K1” value at panel of 442 kinases [3] was 100.

Turning to `COc1cc(C(=O)N2CCC(N3CCN(C)CC3)CC2)ccc1Nc1ncc2c(n1)N1CCc3cccc(c31)C(=O)N2C` [Compound 24], the “KINOMEscan: PAK1” value on panel of 442 kinases [1] was 85.

For `COc1cc(C(=O)N2CCC(N3CCN(C)CC3)CC2)ccc1Nc1ncc2c(n1)N(C)c1ccccc1C(=O)N2C` [15 (LRRK2-IN-1)], the “KINOMEscan: PAK1” value at panel of 442 kinases [1] is recorded as 95. Besides, the “KINOMEscan: INSRR” value on panel of 442 kinases [2] turned out to be 97. Moreover, the “KINOMEscan: MAP3K1” value on panel of 442 kinases [3] is 95.

`CCOc1cc(C(=O)N2CCC(N3CCN(C)CC3)CC2)ccc1Nc1ncc2c(n1)N(C1CCCC1)c1ccccc1C(=O)N2C` [Compound 26]: the “KINOMEscan: PAK1” value at panel of 442 kinases [1] is 100. Besides, the “KINOMEscan: INSRR” value on panel of 442 kinases [2] came out at 100. In addition, the “KINOMEscan: MAP3K1” value at panel of 442 kinases [3] was found to be 93.

Source of the values: article PMC3914206.
